Drawing on US6943196B1, “NF-κB inhibitor comprising phenylmethyl benzoquinone as the active ingredient” (Daiichi Suntory Pharma Co., Ltd., priority 1998, dated 2005), this text covers IC50 for 14 compounds.

Experiment [1] relates to TNF-α production. The experiment is described as follows: TNF-α production of LPS-stimulated RAW264.7 cells (ELISA). As to conditions: Mus musculus, LPS (10 μg/ml) for 4 hours. It counts as cell-based. The source says: (§1) When various cells are stimulated with LPS, NF-κB is activated which results in the expression and induction of proteins represented by […] and TNF-α, and thereby the cells start to produce NO and TNF-α.
(§2) The inhibitory activity of the compounds shown in the Examples is expressed as an IC50 value.

In experiment [2] the test system is NO production. The experiment is described as follows: NO production of LPS-stimulated RAW264.7 cells (Griess' method). Type of experiment: cell-based. As to conditions: Mus musculus, LPS (10 μg/ml), NO in culture medium after 24 hours.
From the text: as §1
The Griess' method utilizing a diazo reaction has been known as a method for indirectly knowing that a cell actually produces NO. In the Griess' method, the Griess' reagent in which naphthylethylenediamine and sulfanilic acid have been mixed is reacted with NO2 ion in the culture medium, and the color development thereof is measured by absorbance at 540 nm. The amount of NO accumulated in the cell culture medium after 24 hours was measured in this method with a result that the production of NO released from LPS (10 μg/ml)-stimulated RAW264.7 cells (ATCC, TIB-71) derived from macrophage is suppressed by the compound obtained in Example 4 (FIG. 4A).
as §2

Molecules are shown by their SMILES.

`COC1=C(OC)C(=O)C(Cc2cccc(CCC(=O)NC(C)C)c2)=C(C)C1=O` [Example 35, N-[3-[3-(5,6-dimethoxy-3-methyl-1,4-benzoquinon-2-ylmethyl)phenyl]propioyl]isopropylamine]: the half-inhibitory concentration (IC50) in experiment [1] and in experiment [2] was 19 µM each time.
As for `COC1=C(OC)C(=O)C(Cc2ccc(CCC(=O)NC(C)C)cc2)=C(C)C1=O` [Example 9, N-[3-[4-(5,6-dimethoxy-3-methyl-1,4-benzoquinon-2-ylmethyl)phenyl]propionyl]isopropylamine], the IC50 (as a rule, the point on the concentration scale where inhibition reaches its midpoint) in experiment [1] is 16 µM; in experiment [2], 10 µM.
The corresponding values for `COC1=C(OC)C(=O)C(Cc2ccc(CC(=O)N3CCOCC3)cc2)=C(C)C1=O` [Example 53, N-[4-(5,6-dimethoxy-3-methyl-1,4-benzoquinon-2-ylmethyl)phenylacetyl]morpholine] are 19 µM and 19 µM.
With `COC1=C(OC)C(=O)C(Cc2ccc(CCC(=O)N3CCCCC3C)cc2)=C(C)C1=O` (stereo not shown) [Example 83], the IC50 in experiment [1] was found to be 9 µM; in experiment [2] it was 6 µM.
The like results for `COC1=C(OC)C(=O)C(Cc2ccc(CCC(=O)N3CC(C)CC(C)C3)cc2)=C(C)C1=O` (stereo not shown) [Example 137] were, in that order, 20 µM and 20 µM.
The like results for `COC1=C(OC)C(=O)C(Cc2ccc(CCC(=O)N3CCCC(C)C3)cc2)=C(C)C1=O` (stereo not shown) [Example 85] were, in that order, 26 µM and 21 µM.
The corresponding values for `COC1=C(OC)C(=O)C(Cc2ccc(CCC(=O)N3CCC(C)CC3)cc2)=C(C)C1=O` [Example 81] are 13 µM and 13 µM.
Take `COC1=C(OC)C(=O)C(Cc2ccc(CCC(=O)N3CCC[C@H]3C(N)=O)cc2)=C(C)C1=O` [Example 106]: the IC50 in experiment [1] was determined as 25 µM; in experiment [2], 17 µM.
On to `COC1=C(OC)C(=O)C(Cc2ccc(CCC(=O)N3CCSCC3)cc2)=C(C)C1=O` [Example 4, N-[3-[4-(5,6-dimethoxy-3-methyl-1,4-benzoquinon-2-ylmethyl)phenyl]propionyl]thiomorpholine], for which the IC50 in experiment [1] and in experiment [2] was 21 µM in each case.
For `COC1=C(OC)C(=O)C(Cc2ccc(CCC(=O)N[C@@H](C)c3ccccc3)cc2)=C(C)C1=O` [Example 120], the figures for the half-maximal inhibitory concentration (IC50) in experiment [1] and in experiment [2] were 11 µM and 7 µM, respectively.
The corresponding values for `COC1=C(OC)C(=O)C(Cc2ccc(CCC(=O)N3CCC(C(C)=O)(c4ccccc4)CC3)cc2)=C(C)C1=O` [Example 168] are 17 µM and 17 µM.
The corresponding values for `COC1=C(OC)C(=O)C(Cc2ccc(CCC(=O)Nc3ccc(OC)c(OC)c3)cc2)=C(C)C1=O` [Example 103] are 31 µM and 31 µM.
Take `COC1=C(OC)C(=O)C(Cc2ccc(CCC(=O)N3CCCCC3)cc2)=C(C)C1=O` [Example 7, N-[3-[4-(5,6-dimethoxy-3-methyl-1,4-benzoquinon-2-ylmethyl)phenyl]propionyl]piperidine]: the concentration for half-maximal inhibition (IC50) in experiment [1] came to 22 µM; in experiment [2], 15 µM.
The corresponding values for `COC1=C(OC)C(=O)C(Cc2ccc(CCC(=O)Nc3ccc(OC)cc3)cc2)=C(C)C1=O` [Example 94] are 11 µM and 9 µM.
